{"source": "patent US20260085077A1", "about": "“HETEROCYCLIC DERIVATIVES AS JANUS KINASE INHIBITORS” (CHIESI FARMACEUTICI S.P.A., priority 2022, published 2026)", "data": [{"tested_on": "IL-13 induced pSTAT6 in BEAS-2B human cell line", "assay": "Inhibition of IL-13 induced pSTAT6 in BEAS", "type": "cell-based", "settings": "IL-13 induced pSTAT6, BEAS-2B cells, ELISA", "experimental": "BEAS-2B human cell line was seeded (100.000 cells/well) and incubated for 48 h at 37° C., 5% CO2, 95% humidity. Compounds were added and incubated 30 min followed by IL-13 as trigger. After 30 min incubation, cells were lysed and pSTAT6 determined by Fastscan phospho-stat6 (Tyr641) sandwich ELISA kit (cell signaling). Inhibitors were tested at 11 consecutive […] dilutions starting from 10 μM (10 μM-40 pM) in duplicate. Calculation of IC50 data, curves and QC analysis were made using Excel tools and GraphPadPrism software. QC criteria parameters: Z′≥0.35, Hill Slope range 0.5 to 5, S:B>2.", "units": {"IC50": "nM"}, "values": [{"smiles": "COc1cc2c(cc1-n1nc(C(=O)NC[C@H]3CN(C)CCO3)c3cnc(-c4cnn5cccnc45)cc31)SCC(=O)N2", "note": "[Example 22, (S)-1-(6-methoxy-3-oxo-3,4-dihydro-2H-benzo[b][1,4]thiazin-7-yl)-N-((4-methylmorpholin-2-yl)methyl)-6-(pyrazolo[1,5-a]pyrimidin-3-yl)-1H-pyrazolo[4,3-c]pyridine-3-carboxamide]", "IC50": "5.01 to 50.1"}, {"smiles": "COc1cc2c(cc1-n1nc(C(=O)NCCCN(C)C)c3cnc(-c4cnn5cccnc45)cc31)CCC(=O)N2", "note": "[Example 24, N-(3-(dimethylamino)propyl)-1-(7-methoxy-2-oxo-1,2,3,4-tetrahydroquinolin-6-yl)-6-(pyrazolo[1,5-a]pyrimidin-3-yl)-1H-pyrazolo[4,3-c]pyridine-3-carboxamide]", "IC50": "50.1 to 501"}, {"smiles": "COc1cc2sncc2cc1-n1nc(NCCN2CCOCC2)c2cnc(-c3cnn4cccnc34)cc21", "note": "[Example 39, 1-(6-methoxybenzo[d]isothiazol-5-yl)-N-(2-morpholinoethyl)-6-(pyrazolo[1,5-a]pyrimidin-3-yl)-1H-pyrazolo[4,3-c]pyridin-3-amine]", "IC50": "5.01 to 50.1"}, {"smiles": "COc1cc2c(cc1-n1nc(NCCN3CCN(C)CC3)c3cnc(-c4cnn5cccnc45)cc31)SCC(=O)N2", "note": "[Example 37]", "IC50": "5.01 to 50.1"}, {"smiles": "COC(=O)Nc1nn(-c2cc3c(cc2OC)NCCO3)c2cc(-c3cnn4cccnc34)ncc12", "note": "[Example 56, methyl (1-(6-methoxy-3,4-dihydro-2H-benzo[b][1,4]oxazin-7-yl)-6-(pyrazolo[1,5-a]pyrimidin-3-yl)-1H-pyrazolo[4,3-c]pyridin-3-yl)carbamate]", "IC50": "5.01 to 50.1"}, {"smiles": "Cc1nn(-c2cc3c(cc2OC(F)F)NCCO3)c2cc(-c3cnn4cccnc34)ncc12", "note": "[Example 1, 6-(difluoromethoxy)-7-(3-methyl-6-(pyrazolo[1,5-a]pyrimidin-3-yl)-1H-pyrazolo[4,3-c]pyridin-1-yl)-3,4-dihydro-2H-benzo[b][1,4]oxazine]", "IC50": "5.01 to 50.1"}, {"smiles": "COc1cc2c(cc1-n1nc(NC(=O)OCCN3CCCCC3)c3cnc(-c4cnn5cccnc45)cc31)SCCN2", "note": "[Example 31, 2-(piperidin-1-yl)ethyl (1-(6-methoxy-3,4-dihydro-2H-benzo[b][1,4]thiazin-7-yl)-6-(pyrazolo[1,5-a]pyrimidin-3-yl)-1H-pyrazolo[4,3-c]pyridin-3-yl)carbamate]", "IC50": "5.01 to 50.1"}, {"smiles": "COc1cc2c(cc1-n1nc(NC(=O)OCCCN3CCOCC3)c3cnc(-c4cnn5cccnc45)cc31)OCCN2", "note": "[Example 61, 3-morpholinopropyl (1-(6-methoxy-3,4-dihydro-2H-benzo[b][1,4]oxazin-7-yl)-6-(pyrazolo[1,5-a]pyrimidin-3-yl)-1H-pyrazolo[4,3-c]pyridin-3-yl)carbamate]", "IC50": "5.01 to 50.1"}, {"smiles": "COc1cc2c(cc1-n1nc(NC(=O)OCCN3CCS(=O)(=O)CC3)c3cnc(-c4cnn5cccnc45)cc31)OCCN2", "note": "[Example 62, 2-(1,1-dioxidothiomorpholino)ethyl (1-(6-methoxy-3,4-dihydro-2H-benzo[b][1,4]oxazin-7-yl)-6-(pyrazolo[1,5-a]pyrimidin-3-yl)-1H-pyrazolo[4,3-c]pyridin-3-yl)carbamate]", "IC50": "5.01 to 50.1"}, {"smiles": "COc1cc2c(cc1-n1nc(NC(=O)OCCCN(C)C)c3cnc(-c4cnn5cccnc45)cc31)OCCN2", "note": "[Example 60, 3-(dimethylamino)propyl (1-(6-methoxy-3,4-dihydro-2H-benzo[b][1,4]oxazin-7-yl)-6-(pyrazolo[1,5-a]pyrimidin-3-yl)-1H-pyrazolo[4,3-c]pyridin-3-yl)carbamate]", "IC50": "5.01 to 50.1"}, {"smiles": "COc1cc2c(cc1-n1nc(NC(=O)OCCSC3CCOC3=O)c3cnc(-c4cnn5cccnc45)cc31)CCCN2", "note": "(centres unmarked) [Example 86, 2-((2-oxotetrahydrofuran-3-yl)thio)ethyl (1-(7-methoxy-1,2,3,4-tetrahydroquinolin-6-yl)-6-(pyrazolo[1,5-a]pyrimidin-3-yl)-1H-pyrazolo[4,3-c]pyridin-3-yl)carbamate]", "IC50": "5.01 to 50.1"}, {"smiles": "COc1cc2c(cc1-n1nc(C(=O)NCCCN(C)C)c3cnc(-c4cnn5cccnc45)cc31)SCC(=O)N2", "note": "[Example 23, N-(3-(dimethylamino)propyl)-1-(6-methoxy-3-oxo-3,4-dihydro-2H-benzo[b][1,4]thiazin-7-yl)-6-(pyrazolo[1,5-a]pyrimidin-3-yl)-1H-pyrazolo[4,3-c]pyridine-3-carboxamide]", "IC50": "5.01 to 50.1"}, {"smiles": "COCC1CCN(CCNC(=O)c2nn(-c3cc4c(cc3OC)NCCO4)c3cc(-c4cnn5cccnc45)ncc23)CC1", "note": "[Example 47, 1-(6-methoxy-3,4-dihydro-2H-benzo[b][1,4]oxazin-7-yl)-N-(2-(4-(methoxymethyl)piperidin-1-yl)ethyl)-6-(pyrazolo[1,5-a]pyrimidin-3-yl)-1H-pyrazolo[4,3-c]pyridine-3-carboxamide]", "IC50": "5.01 to 50.1"}, {"smiles": "COc1cc2c(cc1-n1nc(NC(=O)OCCNC3CCOC3=O)c3cnc(-c4cnn5cccnc45)cc31)OCCN2", "note": "(centres unmarked) [Example 68, 2-((2-oxotetrahydrofuran-3-yl)amino)ethyl (1-(6-methoxy-3,4-dihydro-2H-benzo[b][1,4]oxazin-7-yl)-6-(pyrazolo[1,5-a]pyrimidin-3-yl)-1H-pyrazolo[4,3-c]pyridin-3-yl)carbamate]", "IC50": "5.01 to 50.1"}, {"smiles": "COc1cc2c(cc1-n1nc(C(=O)NCCN3CCC4(CCC(=O)O4)CC3)c3cnc(-c4cnn5cccnc45)cc31)OCCN2", "note": "[Example 15, 1-(6-methoxy-3,4-dihydro-2H-benzo[b][1,4]oxazin-7-yl)-N-(2-(2-oxo-1-oxa-8-azaspiro[4.5]decan-8-yl)ethyl)-6-(pyrazolo[1,5-a]pyrimidin-3-yl)-1H-pyrazolo[4,3-c]pyridine-3-carboxamide]", "IC50": "< 5.01"}, {"smiles": "COc1cc2c(cc1-n1nc(C(=O)NC3CN(CC4CCOCC4)C3)c3cnc(-c4cnn5cccnc45)cc31)OCCN2", "note": "[Example 13]", "IC50": "5.01 to 50.1"}, {"smiles": "COc1cc2c(cc1-n1nc(NC(=O)OCCN(C)C)c3cnc(-c4cnn5cccnc45)cc31)CCC(=O)N2", "note": "[Example 27, 2-(dimethylamino)ethyl (1-(7-methoxy-2-oxo-1,2,3,4-tetrahydroquinolin-6-yl)-6-(pyrazolo[1,5-a]pyrimidin-3-yl)-1H-pyrazolo[4,3-c]pyridin-3-yl)carbamate]", "IC50": "5.01 to 50.1"}, {"smiles": "COc1cc2c(cc1-n1nc(NC(=O)OCCN3CCCCC3)c3cnc(-c4cnn5cccnc45)cc31)OCCN2", "note": "[Example 66, 2-(piperidin-1-yl)ethyl (1-(6-methoxy-3,4-dihydro-2H-benzo[b][1,4]oxazin-7-yl)-6-(pyrazolo[1,5-a]pyrimidin-3-yl)-1H-pyrazolo[4,3-c]pyridin-3-yl)carbamate]", "IC50": "5.01 to 50.1"}, {"smiles": "COc1cc2c(cc1-n1nc(C)c3cnc(-c4cnn5cccnc45)cc31)OC(F)(F)C(=O)N2", "note": "[Example 11, 2,2-difluoro-6-methoxy-7-(3-methyl-6-(pyrazolo[1,5-a]pyrimidin-3-yl)-1H-pyrazolo[4,3-c]pyridin-1-yl)-2H-benzo[b][1,4]oxazin-3(4H)-one]", "IC50": "5.01 to 50.1"}, {"smiles": "COc1cc2c(cc1-n1nc(C(=O)NCCN3C[C@H]4COC(=O)[C@H]4C3)c3cnc(-c4cnn5cccnc45)cc31)OCCN2", "note": "[Example 50, 1-(6-methoxy-3,4-dihydro-2H-benzo[b][1,4]oxazin-7-yl)-N-(2-((3aS,6aR)-1-oxotetrahydro-1H-furo[3,4-c]pyrrol-5(3H)-yl)ethyl)-6-(pyrazolo[1,5-a]pyrimidin-3-yl)-1H-pyrazolo[4,3-c]pyridine-3-carboxamide]", "IC50": "5.01 to 50.1"}]}]}
